Experimental data as given in patent US7282469B2, “4-trifluoromethylpyrazolyl-substituted pyridines and pyrimidines” (Bayer CropScience GmbH, priority 2002, dated 2007).

Key:
[1] = test system: Oryza sativa (rice); assay: Crop plant tolerance, pre-emergence; format: in vivo
From the text: (§1) 1. Weed Plant Herbicidal Activity and Crop Plant Tolerance, Pre-emergence
(§2) Seeds of monocotyledonous and dicotyledonous weed plants and also of crop plants are placed in sandy loam soil in cardboard pots and are covered with soil. The compounds of the invention, formulated as wettable powders or emulsifiable concentrates, are then applied as an aqueous suspension or emulsion, respectively, and at different dosages to the surface of the covering soil at an application rate of 600 to 800 l of water per ha (converted). Following treatment, the pots are placed in a greenhouse and kept under good growth conditions for the weeds. Visual scoring of the plant damage or emergence damage is made after the test plants have emerged, after an experimental period of 3 to 4 weeks, in comparison with untreated controls. In this case, for example, the compounds of the invention from examples nos. 1.7 and 4.1 at a dosage of 320 g of active substance per hectare display a 100% activity against Digitaria sanguinalis, Setaria viridis and Amaranthus retroflexus. At the same dosage these compounds of the invention cause no damage to the crop plants Oryza sativa (rice) and Glycine max (soybean). The compound of the invention from example no. […] At the same dosage this compound of the invention causes no damage to the crop plants Oryza sativa (rice), Zea mays (maize) and Glycine max (soybean). At a dosage of 320 g of active substance per hectare, the compound of the invention from example no.

[2] = test system: Glycine max (soybean); assay: Crop plant tolerance, pre-emergence; format: in vivo
From the text: as §1, §2

[3] = test system: Zea mays (maize); assay: Crop plant tolerance, pre-emergence; format: in vivo; conditions: 20 g of active substance per hectare
From the text: as §1, §2

[4] = test system: Setaria viridis; assay: Weed plant herbicidal activity, pre-emergence; format: in vivo; conditions: visual scoring after 3 to 4 weeks
From the text: as §1, §2

[5] = test system: Alopecurus myosuroides; assay: Weed plant herbicidal activity, pre-emergence; format: in vivo; conditions: 20 g of active substance per hectare, visual scoring after 3 to 4 weeks
From the text: as §1, §2

[6] = test system: Digitaria sanguinalis; assay: Weed plant herbicidal activity, pre-emergence; format: in vivo; conditions: 320 g of active substance per hectare, visual scoring after 3 to 4 weeks
From the text: as §1, §2

[7] = test system: Amaranthus retroflexus; assay: Weed plant herbicidal activity, pre-emergence; format: in vivo; conditions: visual scoring after 3 to 4 weeks
From the text: as §1, §2

[8] = test system: Veronica persica; assay: Weed plant herbicidal activity, pre-emergence; format: in vivo; conditions: 20 g of active substance per hectare, visual scoring after 3 to 4 weeks
From the text: as §1, §2

[9] = 20 g of active substance per hectare
[10] = 320 g of active substance per hectare

Cc1cnc(-n2cc(C(F)(F)F)cn2)nc1Oc1cccc(C(F)(F)F)c1 [Example 1.7, 5-methyl-4-(3-trifluoromethylphenoxy)-2-(4-trifluoromethyl-1H-1-pyrazolyl)pyrimidine]
at least 90%: activity against Setaria viridis [4, 9] | activity against Alopecurus myosuroides [5] | activity against Amaranthus retroflexus [7, 9] | activity against Veronica persica [8]
103 to 105 °C: melting point
no damage: damage to the crop plant Oryza sativa (rice) [1, 9] | damage to the crop plant Oryza sativa (rice) [1, 10] | damage to the crop plant Glycine max (soybean) [2, 9] | damage to the crop plant Glycine max (soybean) [2, 10] | damage to the crop plant Zea mays (maize) [3]
100%: activity against Setaria viridis [4, 10] | activity against Digitaria sanguinalis [6] | activity against Amaranthus retroflexus [7, 10]
